BindingDB's records for doi:10.1021/acsmedchemlett.1c00391 (Glaxosmithkline, 2021)

What was measured:
[1] = Inhibition of HCV genotype 1b NS5A infected in HuH-7-Luc/Neo-ET cells assessed as reduction in viral replication measured by Luciferase reporter gene assay
[2] = Inhibition of HCV genotype 1a NS5A infected in HuH-7-Luc/Neo-ET cells assessed as reduction in viral replication measured by Luciferase reporter gene assay

Row | SMILES | EC50 [1] [nM] | EC50 [2] [nM]
1 | COC(=O)N[C@H]1CCC[C@H]2CC[C@@H](c3ncc(-c4ccc(-c5ccc(-c6cnc([C@@H]7CCCN7C(=O)[C@@H](NC(=O)OC)C(C)C)[nH]6)cc5)cc4)[nH]3)N2C1=O | 0.109 | 17
2 | COC(=O)N[C@H](C(=O)N1CCC[C@H]1c1ncc(-c2ccc(-c3ccc(-c4cnc([C@@H]5CC[C@@H]6CCC[C@@H](NC(=O)OC)C(=O)N65)[nH]4)cc3)cc2)[nH]1)C(C)C | 0.133 | 12
3 | COC(=O)N[C@H](C(=O)N1CCC[C@H]1c1ncc(-c2ccc(-c3ccc(-c4cnc([C@@H]5CC[C@H]6CCC[C@@H](NC(=O)OC)C(=O)N65)[nH]4)cc3)cc2)[nH]1)C(C)C | 0.059 | 0.673
4 | COC(=O)N[C@H]1CCC[C@@H]2CC[C@@H](c3ncc(-c4ccc(-c5ccc(-c6cnc([C@@H]7CCCN7C(=O)[C@@H](NC(=O)OC)C(C)C)[nH]6)cc5)cc4)[nH]3)N2C1=O | 0.037 | 0.471
5 | COC(=O)N[C@H]1CCC[C@H]2CC[C@@H](c3ncc(-c4ccc(-c5ccc(-c6cnc([C@@H]7CC8(CN7C(=O)[C@@H](NC(=O)OC)C(C)C)OCCO8)[nH]6)cc5)cc4)[nH]3)N2C1=O | 0.046 | 8.6
6 | COC(=O)N[C@H](C(=O)N1CC2(C[C@H]1c1ncc(-c3ccc(-c4ccc(-c5cnc([C@@H]6CC[C@@H]7CCC[C@@H](NC(=O)OC)C(=O)N76)[nH]5)cc4)cc3)[nH]1)OCCO2)C(C)C | 0.08 | 15
7 | COC(=O)N[C@H](C(=O)N1CC2(C[C@H]1c1ncc(-c3ccc(-c4ccc(-c5cnc([C@@H]6CC[C@H]7CCC[C@@H](NC(=O)OC)C(=O)N76)[nH]5)cc4)cc3)[nH]1)OCCO2)C(C)C | 0.047 | 0.707
8 | COC(=O)N[C@H]1CCC[C@@H]2CC[C@@H](c3ncc(-c4ccc(-c5ccc(-c6cnc([C@@H]7CC8(CN7C(=O)[C@@H](NC(=O)OC)C(C)C)OCCO8)[nH]6)cc5)cc4)[nH]3)N2C1=O | 0.064 | 1.5
9 | COC(=O)N[C@H](C(=O)N1CC2(C[C@H]1c1ncc(-c3ccc(-c4ccc(-c5cnc([C@@H]6CC[C@@H]7CCC[C@H](N(C)C)C(=O)N76)[nH]5)cc4)cc3)[nH]1)OCCO2)C(C)C | 0.209 | 32
10 | COC(=O)N[C@H](C(=O)N1CC2(C[C@H]1c1ncc(-c3ccc(-c4ccc(-c5cnc([C@@H]6CC[C@@H]7CCC[C@@H](N(C)C)C(=O)N76)[nH]5)cc4)cc3)[nH]1)OCCO2)C(C)C | 0.217 | 119
11 | COC(=O)N[C@H](C(=O)N1CC2(C[C@H]1c1ncc(-c3ccc(-c4ccc(-c5cnc([C@@H]6CC[C@H]7CCC[C@@H](N(C)C)C(=O)N76)[nH]5)cc4)cc3)[nH]1)OCCO2)C(C)C | 0.298 | 11
12 | COC(=O)N[C@H](C(=O)N1CC2(C[C@H]1c1ncc(-c3ccc(-c4ccc(-c5cnc([C@@H]6CC[C@H]7CCC[C@H](N(C)C)C(=O)N76)[nH]5)cc4)cc3)[nH]1)OCCO2)C(C)C | 0.084 | 7.7
13 | COC(=O)N[C@H](C(=O)N1CCC[C@H]1c1nc(-c2ccc(-c3ccc(-c4c[nH]c([C@@H]5CCCN5C(=O)[C@@H](NC(=O)OC)C(C)C)n4)cc3)cc2)c[nH]1)C(C)C [BMS-790052] | 0.032 | 0.079
